Measured values reported in the NIST ThermoML archive (doi:10.1021/je050147b).
“And” between values parts separate entries of the source, which are not always exact repeats. Equal values may be shown once.

Conditions: Liquid; for mass density: 101.33 kPa

CCCCn1cc[n+](C)c1.F[P-](F)(F)(F)(F)F [1-butyl-3-methylimidazolium hexafluorophosphate]
Conditions	mass density
273.1 K	1388.85 kg/m3
278.1 K	1384.55 kg/m3
283.1 K	1380.27 kg/m3
288.15 K	1375.99 kg/m3
293.15 K	1371.72 kg/m3
298.15 K	1367.45 kg/m3
303.15 K	1363.19 kg/m3
313.15 K	1354.95 kg/m3 and 1354.96 kg/m3
323.15 K	1346.75 kg/m3
333.15 K	1338.58 kg/m3
343.15 K	1330.45 kg/m3
353.15 K	1322.38 kg/m3
363.15 K	1314.36 kg/m3

Conditions	viscosity
273.15 K, 100 kPa	1717 mPa·s
278.15 K, 100 kPa	1119 mPa·s
283.15 K, 100 kPa	755 mPa·s
288.15 K, 100 kPa	521 mPa·s
293.15 K, 100 kPa	369 mPa·s
298.15 K, 100 kPa	271 mPa·s and 273 mPa·s
298.15 K, 12100 kPa	329 mPa·s
298.15 K, 24700 kPa	391 mPa·s
298.15 K, 25700 kPa	390 mPa·s
298.15 K, 50600 kPa	546 mPa·s
298.15 K, 75800 kPa	761 mPa·s
298.15 K, 100300 kPa	1047 mPa·s
298.15 K, 125100 kPa	1432 mPa·s
298.15 K, 125600 kPa	1461 mPa·s
298.15 K, 150300 kPa	1995 mPa·s
298.15 K, 174100 kPa	2694 mPa·s
303.15 K, 100 kPa	202 mPa·s
308.15 K, 100 kPa	158.4 mPa·s
308.15 K, 900 kPa	159.7 mPa·s
308.15 K, 9600 kPa	179.1 mPa·s
308.15 K, 25800 kPa	221 mPa·s
308.15 K, 50300 kPa	302 mPa·s
308.15 K, 75600 kPa	412 mPa·s
308.15 K, 100300 kPa	557 mPa·s
308.15 K, 125200 kPa	750 mPa·s
308.15 K, 140600 kPa	898 mPa·s
308.15 K, 151000 kPa	1016 mPa·s
313.15 K, 100 kPa	120 mPa·s
323.15 K, 100 kPa	73.6 mPa·s and 74.1 mPa·s and 74.9 mPa·s
323.15 K, 1300 kPa	74.9 mPa·s
323.15 K, 3100 kPa	76.9 mPa·s
323.15 K, 5600 kPa	78.2 mPa·s
323.15 K, 10700 kPa	82.7 mPa·s
323.15 K, 25800 kPa	98.9 mPa·s
323.15 K, 50800 kPa	127.8 mPa·s
323.15 K, 75800 kPa	173.5 mPa·s
323.15 K, 100700 kPa	224 mPa·s
323.15 K, 125500 kPa	281 mPa·s
323.15 K, 150400 kPa	371 mPa·s
323.15 K, 175200 kPa	481 mPa·s
323.15 K, 200000 kPa	616 mPa·s
323.15 K, 224600 kPa	784 mPa·s
323.15 K, 249300 kPa	995 mPa·s
333.15 K, 100 kPa	49.5 mPa·s [middle of 4 runs]
333.15 K, 10700 kPa	55.8 mPa·s
333.15 K, 26200 kPa	66 mPa·s
333.15 K, 51100 kPa	85.6 mPa·s
333.15 K, 75700 kPa	109.8 mPa·s
333.15 K, 91100 kPa	128 mPa·s
333.15 K, 100100 kPa	139.4 mPa·s
343.15 K, 100 kPa	35.1 mPa·s and 34.7 mPa·s and 34.6 mPa·s
343.15 K, 5500 kPa	37.2 mPa·s
343.15 K, 10600 kPa	39.2 mPa·s
343.15 K, 25700 kPa	45.6 mPa·s
343.15 K, 50600 kPa	58 mPa·s
343.15 K, 75600 kPa	73.7 mPa·s
343.15 K, 100600 kPa	92.9 mPa·s
343.15 K, 125400 kPa	116.2 mPa·s
343.15 K, 140200 kPa	132.6 mPa·s
343.15 K, 149900 kPa	144.4 mPa·s
343.15 K, 172900 kPa	176.1 mPa·s
353.15 K, 100 kPa	25.5 mPa·s
